From publication PMC4760274, “Elongation factor 2 kinase promotes cell survival by inhibiting protein synthesis without inducing autophagy” (Cellular Signalling, 2016) come the findings set out here.

Peptide text beside a SMILES is read from it. * marks the point of attachment. Cbz = O=C(OCc1ccccc1)*

Data set [1] deals with P-eEF2 in WT MEFs. In words: eEF2 phosphorylation in wild-type MEFs (western blot). In kind it is cell-based, mouse. The settings on record: MK2206 5 μM or 2DG 10 mM, 24 h, Fig. 3A. The method, then: After treatment, cells were lysed in ice-cold lysis buffer containing 1% (v/v) Triton X-100 (215680010, Acros Organics), 50 mM Tris (T6066-1KG, Sigma-Aldrich)–HCl (258148-2.5 L, Sigma-Aldrich) pH 7.4, 50 mM NaCl (BP358-212, Fisher Scientific), 0.2 mM EDTA (BP120-500, Fisher Scientific), 0.2 mM EGTA (E1102, Melford), 50 mM β-glycerophosphate (G9422, Sigma-Aldrich), 1 mM Na3VO4 (S6508, Sigma-Aldrich), 15 mM β-mercaptoethanol (125472500, Acros Organics) and 1 × protease inhibitor cocktail (5056489001, Roche). Lysates were spun at 16,000 × g for 10 min at 4 °C; the supernatants were kept and total protein concentration was quantified by Bradford assay following the manufacturer's instructions. […]
Fig. 3 Role of eEF2K in autophagy in mouse embryonic fibroblasts (MEFs). […] Cells were then lysed and samples containing equal amounts of protein were analysed by western blot using the indicated antibodies. (B) Quantitation of data from multiple experiments as in (A) expressed as LC3II normalized to actin, mean ± SEM (control cells without treatment = 1; n = 3). […] Cells were then lysed and samples containing equal amounts of protein were analysed by western blot using the indicated antibodies. (D) Quantitation of data from multiple experiments as in (C) expressed as LC3II normalized to actin, mean ± SEM (control cells without treatment = 1; n = 3).
(In general: In western blotting, separated proteins are transferred to a membrane and probed.)

Data set [2] deals with LC3II in MEFs. In words: LC3 modification in MEFs (western blot). Type of data set: cell-based, mouse. The conditions noted are these: 24 h; for ratio of the two forms of LC3: WT MEFs, MK2206 5 μM or 2DG 10 mM, Fig. 3A. The method, then:
(§1) After treatment, cells were lysed in ice-cold lysis buffer containing 1% (v/v) Triton X-100 (215680010, Acros Organics), 50 mM Tris (T6066-1KG, Sigma-Aldrich)–HCl (258148-2.5 L, Sigma-Aldrich) pH 7.4, 50 mM NaCl (BP358-212, Fisher Scientific), 0.2 mM EDTA (BP120-500, Fisher Scientific), 0.2 mM EGTA (E1102, Melford), 50 mM β-glycerophosphate (G9422, Sigma-Aldrich), 1 mM Na3VO4 (S6508, Sigma-Aldrich), 15 mM β-mercaptoethanol (125472500, Acros Organics) and 1 × protease inhibitor cocktail (5056489001, Roche). Lysates were spun at 16,000 × g for 10 min at 4 °C; the supernatants were kept and total protein concentration was quantified by Bradford assay following the manufacturer's instructions.
(§2) These procedures were performed as described previously.
Fig. 3 Role of eEF2K in autophagy in mouse embryonic fibroblasts (MEFs). Wildtype (WT) and eEF2K^−/− (KO) MEFs were treated, where indicated, with MK2206 (MK) (5 μM) or 10 mM 2-deoxyglucose (2DG) or in medium lacking glucose (− Glc) for 24 h. Cells were then lysed and samples containing equal amounts of protein were analysed by western blot using the indicated antibodies. (B) Quantitation of data from multiple experiments as in (A) expressed as LC3II normalized to actin, mean ± SEM (control cells without treatment = 1; n = 3). (C) Wild-type (WT) and eEF2K^−/− (KO) MEFs were treated, where indicated, with rapamycin (50 nM) or AZD8055 (0.5 μM) and/or chloroquine (10 μM) for 24 h. Cells were then lysed and samples containing equal amounts of protein were analysed by western blot using the indicated antibodies. (D) Quantitation of data from multiple experiments as in (C) expressed as LC3II normalized to actin, mean ± SEM (control cells without treatment = 1; n = 3).

The subject of data set [3] is P-eEF2 in A549 cells. Nature of the data set: eEF2 phosphorylation in A549 cells (western blot). Type of data set: cell-based, human. The settings on record: for phosphorylation of eEF2: 16 h, 2DG 10 mM, rapamycin 100 nM, AZD8055 1 μM, MG132 10 μM, Fig. 2A. The method, then: as §1, §2
Cells were then treated with 10 mM 2-deoxyglucose (2DG), rapamycin (100 nM), AZD8055 (1 μM) or MG132 (10 μM) for 16 h. Cells were then lysed and samples containing equal amounts of protein were analysed by western blot using the indicated antibodies. Values given below each lane show quantitation of the signal for LC3II, corrected for the actin signal from multiple experiments as in (A) expressed as LC3II normalized to actin, mean ± SEM (control cells without treatment = 1; n = 3). (B) A549 cells were cultured as in (A) to induce eEF2K knockdown. A549 cells were transiently transfected with the GST-BHMT construct and maintained in full media in the presence or absence of AZD8055 (1 μM) for 16 h, in the presence of leupeptin and E64d. GST-BHMT was precipitated with glutathione agarose from the whole cell extracts (bottom panel). Values given below show the quantitation of data from multiple experiments as in (B) expressed as the level of BHMT fragment normalized to the control without IPTG, mean ± SEM (control cells without treatment = 1; n = 3). Values given below each lane show quantitation of the signal for P-eEF2, corrected for the eEF2 signal from multiple experiments as in (B) expressed as P-eEF2 normalized to eEF2, mean ± SEM (control cells without treatment = 1; n = 3). (C) Cells were treated as described in Supplemental Fig. S3, visualized by confocal microscopy and the rate of autophagosome–lysosome fusion was measured according to green/red fluorescence ratio which reflect the percentage of unfused LC3. Scale bar = 20 μm. (D) Data quantification of C, data are presented as means ± SEM. (n = 5) ***P < 0.001, obtained by two-way ANOVA (Dunnett's test). (E) Untransfected A549 cells were treated with AZD8055 and BafA1 as described in A, cell lysates were collected at T0, 1 and 3 h for immunoblotting analysis. Values given below each lane show quantitation of the signal for LC3II, corrected for the LC3I signal from multiple experiments as in (E) expressed as LC3II normalized to LC3I, mean ± SEM (control cells without treatment = 1; n = 3).

For data set [4], the system named is eEF2K levels in A549 cells. In words: eEF2K protein levels in A549 cells (western blot). In kind it is cell-based, human. The settings on record: CHX 5 μg/mL, 24 h, Fig. 1E. As to the method: as §1, §2
(§3) Fig. 1 eEF2K helps cells withstand glucose starvation. […] Cells were then lysed and samples containing equal amounts of protein were analysed by western blot using the indicated antibodies. Values given below each lane show quantitation of the signal for P-eEF2, corrected for the eEF2 signal from multiple experiments as in (A) expressed as P-eEF2 normalized to eEF2, mean ± SEM (control cells without treatment = 1; n = 3). […] Cells were lysed and caspase 3/7 activity was determined. […] Cell death was measured using CellTox Green® assay. […]

Data set [5] concerns A549 cells. In words: cell death of A549 cells (CellTox Green assay). In kind it is cell-based, human. The conditions noted are these: CHX 5 μg/mL. The method, then:
(§4) Caspase 3/7 assays (G8090, Promega) were performed according to the manufacturer's instructions. Briefly, 10,000 cells/well were plated overnight in a 96-well plate. Cells were treated as described in the figure legends for the indicated time period. To measure caspase 3/7 activity, 50 μL of caspase Glo 3/7 reagent was added to each well for 2 h with constant shaking at room temperature. Luminescence was measured using a BMG Labtech FLUOstar Optimi plate reader. Cytotoxicity was evaluated by CellTox Green® cytotoxicity assay (Promega). Briefly, 10,000 cells/well were plated overnight in a 96-well plate. Cells were treated as described in the figure legends for the indicated time period. Fluorescence was measured at 485–500 nmEx/520–530 nmEm using a BMG Labtech FLUOstar Optimi plate reader.
as §3

The test system of data set [6] is HCT116 cells. In words: cell death markers in HCT116 cells (PARP cleavage, caspase 3/7 activity). Type of data set: cell-based, human. The settings on record: CHX 5 μg/mL or Harringtonine 2 μg/mL, Fig. 1B, C. The method, then: as §4, §3
Data set [7] deals with P-eEF2 in HCT116 cells. Nature of the data set: eEF2 phosphorylation in HCT116 cells (western blot). In kind it is cell-based, human. The conditions noted are these: 24 h, CHX 5 μg/mL or Harringtonine 2 μg/mL, Fig. 1C. The method, then:
as §1, §2, §3

Data set [8] relates to mTORC1 signalling in HCT116 cells. Nature of the data set: mTORC1 signalling in HCT116 cells (western blot). In kind it is cell-based, human. The settings on record: 24 h, Harringtonine 2 μg/mL, Fig. 1C. The method, then: as §1, §2, §3
Data set [9] relates to LC3II in A549 cells. In words: LC3 modification in A549 cells (western blot). In kind it is cell-based, human. The settings on record: A549 with or without eEF2K knockdown; chloroquine 10 μM; 16 h; Fig. S1. The method, then:
as §1, §2
Cells were then treated with 10 mM 2-deoxyglucose (2DG), rapamycin (100 nM), AZD8055 (1 μM) or MG132 (10 μM) for 16 h. Cells were then lysed and samples containing equal amounts of protein were analysed by western blot using the indicated antibodies. Values given below each lane show quantitation of the signal for LC3II, corrected for the actin signal from multiple experiments as in (A) expressed as LC3II normalized to actin, mean ± SEM (control cells without treatment = 1; n = 3). (B) A549 cells were cultured as in (A) to induce eEF2K knockdown. […] (D) Data quantification of C, data are presented as means ± SEM. […]

In data set [10] the test system is GST-BHMT cleavage (autophagic flux) in A549 cells. In words: GST-BHMT cleavage assay in A549 cells. Type of data set: cell-based, human. The conditions noted are these: chloroquine, data not shown.

In the case of `O=CC[C@@H](O)[C@H](O)[C@H](O)CO` [2-DG, 2-deoxyglucose], the “level of phosphorylation of eEF2” value in data set [1] is “increased the level of phosphorylation of eEF2”. Moreover, the “ratio of the two forms of LC3” value in data set [2] was “shift in the ratio of the two forms of LC3 from the upper (LC3I) to the lower band”. The “phosphorylation of eEF2” value in data set [3] is reported as “induced the phosphorylation of eEF2”.
Take `C[C@@H]1C[C@@H]([C@H](O)CC2CC(=O)NC(=O)C2)C(=O)[C@@H](C)C1` [CHX, cycloheximide]: the “levels of eEF2K” value in data set [4] is given as “decreased the levels of eEF2K”. Besides, the “effect on cell survival under control conditions” value in data set [5] (A549) is “adverse effect”. In addition, the “death induced by glucose starvation” value in [5] (A549 with eEF2K knockdown, 48 h, Fig. 1D) is given as “partially rescued”. In [6], the “cell survival in cells starved of glucose and treated with eEF2K inhibitor JAN-849” value is reported as “restored cell survival”. Moreover, in data set [7], the “effect on eEF2 phosphorylation (p-eEF2)” value is listed as “modest decrease”. The eEF2 phosphorylation result in data set [3] (CHX 5 μg/mL, 24 h, Fig. 1E) is reported as “decrease in eEF2 phosphorylation”.
For the compound `NC1(c2ccc(-c3nc4ccn5c(=O)[nH]nc5c4cc3-c3ccccc3)cc2)CCC1` [MK2206], in data set [1], the “level of phosphorylation of eEF2” value is “increased the level of phosphorylation of eEF2”. For the same compound, in data set [2], the “ratio of the two forms of LC3” value was “shift in the ratio of the two forms of LC3 from the upper (LC3I) to the lower band”.
On to `CC(C)C[C@@H](C=O)NC(=O)[C@H](CC(C)C)NC(=O)[C@H](CC(C)C)NC(=O)OCc1ccccc1` [MG132] (Cbz-Leu-Leu-Leu-aldehyde), for which, in [3], the “phosphorylation of eEF2” value is given as “induced the phosphorylation of eEF2”.
As for `COC(=O)C[C@](O)(CCC(C)(C)O)C(=O)O[C@@H]1C(OC)=C[C@]23CCCN2CCc2cc4c(cc2[C@H]13)OCO4` [Harringtonine], the “effect on mTORC1 signalling” value in [8] is given as “very little”. Moreover, the “cell survival in cells starved of glucose and treated with eEF2K inhibitor JAN-849” value in data set [6] was “restored cell survival”. For the same compound, the “effect on eEF2 phosphorylation (p-eEF2)” value in data set [7] is “no effect”.
Turning to `CCN(CC)CCCC(C)Nc1ccnc2cc(Cl)ccc12` (stereo not drawn) [chloroquine], in data set [9], the “modified LC3” value was “increased modified LC3”. In [10], the “cleavage of GST-BHMT” value is “completely blocked”. The “levels of modified LC3-II” value in [2] (MEFs treated with rapamycin (50 nM) or AZD8055 (0.5 μM), chloroquine 10 μM, Fig. 3C) is reported as “increased the levels of modified LC3-II”.
